Experimental data from the NIST ThermoML archive (doi:10.1021/je800248w).

Tests used:
[1] = excess molar enthalpy (molar enthalpy of mixing); xn = mol fraction of the nth substance listed; details: 101 kPa, Liquid, Calvet calorimetry
[2] = molar heat capacity at constant pressure; xn = mol fraction of the nth substance listed; details: 101.3 kPa, Liquid, Small sample (50 mg) DSC

CCn1cc[n+](C)c1.O=C([O-])C(F)(F)F [1-ethyl-3-methylimidazolium trifluoroacetate] + O
Details | excess molar enthalpy [kJ/mol] | molar heat capacity at constant pressure [J/K/mol]
[1], 313.04 K, x2 = 0.2499 | -1.32 | –
[1], 313.04 K, x2 = 0.25 | -1.32 | –
[1], 313.04 K, x2 = 0.498 | -2.14 | –
[1], 313.04 K, x2 = 0.4981 | -2.14 | –
[1], 313.04 K, x2 = 0.7483 | -2.05 | –
[1], 313.04 K, x2 = 0.7484 | -2.05 | –
[1], 323.04 K, x2 = 0.2474 | -1.31 | –
[1], 323.04 K, x2 = 0.2485 | -1.31 | –
[1], 323.04 K, x2 = 0.4967 | -2.1 | –
[1], 323.04 K, x2 = 0.4993 | -2.1 | –
[1], 323.04 K, x2 = 0.7472 | -1.96 | –
[1], 323.04 K, x2 = 0.7482 | -1.96 | –
[1], 333.06 K, x2 = 0.2464 | -1.3 | –
[1], 333.06 K, x2 = 0.2477 | -1.31 | –
[1], 333.06 K, x2 = 0.4934 | -2.06 | –
[1], 333.06 K, x2 = 0.4966 | -2.07 | –
[1], 333.06 K, x2 = 0.7466 | -1.88 | –
[1], 333.06 K, x2 = 0.7476 | -1.88 | –
[1], 348.06 K, x2 = 0.2486 | -1.3 | –
[1], 348.06 K, x2 = 0.2489 | -1.3 | –
[1], 348.06 K, x2 = 0.4979 | -2 | –
[1], 348.06 K, x2 = 0.4994 | -2 | –
[1], 348.06 K, x2 = 0.748 | -1.72 | –
[1], 348.06 K, x2 = 0.7484 | -1.72 | –
[2], 283.15 K, x2 = 0 | – | 308
[2], 283.15 K, x2 = 0.2025 | – | 264
[2], 283.15 K, x2 = 0.3973 | – | 226
[2], 283.15 K, x2 = 0.5817 | – | 182
[2], 283.15 K, x2 = 0.7562 | – | 139
[2], 283.15 K, x2 = 0.842 | – | 117
[2], 283.15 K, x2 = 0.9256 | – | 99
[2], 283.15 K, x2 = 0.9668 | – | 87
[2], 283.15 K, x2 = 0.9912 | – | 78
[2], 293.15 K, x2 = 0 | – | 313
[2], 293.15 K, x2 = 0.2025 | – | 269
[2], 293.15 K, x2 = 0.3973 | – | 231
[2], 293.15 K, x2 = 0.5817 | – | 186
[2], 293.15 K, x2 = 0.7562 | – | 143
[2], 293.15 K, x2 = 0.842 | – | 120
[2], 293.15 K, x2 = 0.9256 | – | 100
[2], 293.15 K, x2 = 0.9668 | – | 90
[2], 293.15 K, x2 = 0.9912 | – | 80
[2], 303.15 K, x2 = 0 | – | 320
[2], 303.15 K, x2 = 0.2025 | – | 274
[2], 303.15 K, x2 = 0.3973 | – | 238
[2], 303.15 K, x2 = 0.5817 | – | 191
[2], 303.15 K, x2 = 0.7562 | – | 147
[2], 303.15 K, x2 = 0.842 | – | 122
[2], 303.15 K, x2 = 0.9256 | – | 102
[2], 303.15 K, x2 = 0.9668 | – | 91
[2], 303.15 K, x2 = 0.9912 | – | 80
[2], 313.15 K, x2 = 0 | – | 324
[2], 313.15 K, x2 = 0.2025 | – | 276
[2], 313.15 K, x2 = 0.3973 | – | 241
[2], 313.15 K, x2 = 0.5817 | – | 194
[2], 313.15 K, x2 = 0.7562 | – | 150
[2], 313.15 K, x2 = 0.842 | – | 124
[2], 313.15 K, x2 = 0.9256 | – | 103
[2], 313.15 K, x2 = 0.9668 | – | 92
[2], 313.15 K, x2 = 0.9912 | – | 81
[2], 323.15 K, x2 = 0 | – | 328
[2], 323.15 K, x2 = 0.2025 | – | 280
[2], 323.15 K, x2 = 0.3973 | – | 245
[2], 323.15 K, x2 = 0.5817 | – | 198
[2], 323.15 K, x2 = 0.7562 | – | 153
[2], 323.15 K, x2 = 0.842 | – | 126
[2], 323.15 K, x2 = 0.9256 | – | 104
[2], 323.15 K, x2 = 0.9668 | – | 92
[2], 323.15 K, x2 = 0.9912 | – | 81
[2], 333.15 K, x2 = 0 | – | 332
[2], 333.15 K, x2 = 0.2025 | – | 285
[2], 333.15 K, x2 = 0.3973 | – | 251
[2], 333.15 K, x2 = 0.5817 | – | 201
[2], 333.15 K, x2 = 0.7562 | – | 155
[2], 333.15 K, x2 = 0.842 | – | 127
[2], 333.15 K, x2 = 0.9256 | – | 104
[2], 333.15 K, x2 = 0.9668 | – | 92
[2], 333.15 K, x2 = 0.9912 | – | 81
[2], 343.15 K, x2 = 0 | – | 337
[2], 343.15 K, x2 = 0.2025 | – | 290
[2], 343.15 K, x2 = 0.3973 | – | 254
[2], 343.15 K, x2 = 0.5817 | – | 204
[2], 343.15 K, x2 = 0.7562 | – | 157
[2], 343.15 K, x2 = 0.842 | – | 129
[2], 343.15 K, x2 = 0.9256 | – | 105
[2], 343.15 K, x2 = 0.9668 | – | 92
[2], 343.15 K, x2 = 0.9912 | – | 81

CCn1cc[n+](C)c1.O=S(=O)([O-])C(F)(F)F [1-ethyl-3-methylimidazolium trifluoromethanesulfonate] + O
Details | excess molar enthalpy [kJ/mol] | molar heat capacity at constant pressure [J/K/mol]
[1], 313.13 K, x2 = 0.2487 | 0.702 | –
[1], 313.13 K, x2 = 0.2495 | 0.703 | –
[1], 313.13 K, x2 = 0.4958 | 1.12 | –
[1], 313.13 K, x2 = 0.4972 | 1.13 | –
[1], 313.13 K, x2 = 0.7477 | 1.01 | –
[1], 323.12 K, x2 = 0.2476 | 0.694 | –
[1], 323.12 K, x2 = 0.2495 | 0.7 | –
[1], 323.12 K, x2 = 0.4959 | 1.15 | –
[1], 323.12 K, x2 = 0.4969 | 1.15 | –
[1], 323.12 K, x2 = 0.7471 | 1.08 | –
[1], 323.12 K, x2 = 0.7474 | 1.08 | –
[1], 333.13 K, x2 = 0.2482 | 0.698 | –
[1], 333.13 K, x2 = 0.2485 | 0.698 | –
[1], 333.13 K, x2 = 0.495 | 1.18 | –
[1], 333.13 K, x2 = 0.4986 | 1.19 | –
[1], 333.13 K, x2 = 0.7477 | 1.16 | –
[1], 333.13 K, x2 = 0.7479 | 1.16 | –
[1], 348.12 K, x2 = 0.2497 | 0.701 | –
[1], 348.12 K, x2 = 0.2514 | 0.707 | –
[1], 348.12 K, x2 = 0.4967 | 1.24 | –
[1], 348.12 K, x2 = 0.4985 | 1.25 | –
[1], 348.12 K, x2 = 0.748 | 1.29 | –
[1], 348.12 K, x2 = 0.7481 | 1.29 | –
[2], 283.15 K, x2 = 0 | – | 353
[2], 283.15 K, x2 = 0.2259 | – | 283
[2], 283.15 K, x2 = 0.4351 | – | 226
[2], 283.15 K, x2 = 0.6152 | – | 181
[2], 283.15 K, x2 = 0.7835 | – | 135
[2], 283.15 K, x2 = 0.8614 | – | 114
[2], 283.15 K, x2 = 0.9353 | – | 94
[2], 283.15 K, x2 = 0.9712 | – | 80
[2], 283.15 K, x2 = 0.9924 | – | 76
[2], 293.15 K, x2 = 0 | – | 358
[2], 293.15 K, x2 = 0.2259 | – | 287
[2], 293.15 K, x2 = 0.4351 | – | 230
[2], 293.15 K, x2 = 0.6152 | – | 184
[2], 293.15 K, x2 = 0.7835 | – | 137
[2], 293.15 K, x2 = 0.8614 | – | 115
[2], 293.15 K, x2 = 0.9353 | – | 95
[2], 293.15 K, x2 = 0.9712 | – | 81
[2], 293.15 K, x2 = 0.9924 | – | 77
[2], 303.15 K, x2 = 0 | – | 366
[2], 303.15 K, x2 = 0.2259 | – | 294
[2], 303.15 K, x2 = 0.4351 | – | 236
[2], 303.15 K, x2 = 0.6152 | – | 189
[2], 303.15 K, x2 = 0.7835 | – | 140
[2], 303.15 K, x2 = 0.8614 | – | 118
[2], 303.15 K, x2 = 0.9353 | – | 97
[2], 303.15 K, x2 = 0.9712 | – | 83
[2], 303.15 K, x2 = 0.9924 | – | 78
[2], 313.15 K, x2 = 0 | – | 371
[2], 313.15 K, x2 = 0.2259 | – | 298
[2], 313.15 K, x2 = 0.4351 | – | 239
[2], 313.15 K, x2 = 0.6152 | – | 191
[2], 313.15 K, x2 = 0.7835 | – | 142
[2], 313.15 K, x2 = 0.8614 | – | 120
[2], 313.15 K, x2 = 0.9353 | – | 98
[2], 313.15 K, x2 = 0.9712 | – | 83
[2], 313.15 K, x2 = 0.9924 | – | 78
[2], 323.15 K, x2 = 0 | – | 376
[2], 323.15 K, x2 = 0.2259 | – | 302
[2], 323.15 K, x2 = 0.4351 | – | 242
[2], 323.15 K, x2 = 0.6152 | – | 193
[2], 323.15 K, x2 = 0.7835 | – | 144
[2], 323.15 K, x2 = 0.8614 | – | 122
[2], 323.15 K, x2 = 0.9353 | – | 99
[2], 323.15 K, x2 = 0.9712 | – | 84
[2], 323.15 K, x2 = 0.9924 | – | 78
[2], 333.15 K, x2 = 0 | – | 380
[2], 333.15 K, x2 = 0.2259 | – | 306
[2], 333.15 K, x2 = 0.4351 | – | 245
[2], 333.15 K, x2 = 0.6152 | – | 195
[2], 333.15 K, x2 = 0.7835 | – | 146
[2], 333.15 K, x2 = 0.8614 | – | 123
[2], 333.15 K, x2 = 0.9353 | – | 99
[2], 333.15 K, x2 = 0.9712 | – | 85
[2], 333.15 K, x2 = 0.9924 | – | 79
[2], 343.15 K, x2 = 0 | – | 384
[2], 343.15 K, x2 = 0.2259 | – | 311
[2], 343.15 K, x2 = 0.4351 | – | 249
[2], 343.15 K, x2 = 0.6152 | – | 197
[2], 343.15 K, x2 = 0.7835 | – | 148
[2], 343.15 K, x2 = 0.8614 | – | 125
[2], 343.15 K, x2 = 0.9353 | – | 100
[2], 343.15 K, x2 = 0.9712 | – | 85
[2], 343.15 K, x2 = 0.9924 | – | 79
